Calls of active or inactive are those of the source.
How the values were obtained:
[1] = molecular target: T1, Heat shock factor protein 1 (Mus musculus, UniProt P38532); assay: enhancement of HSF1-driven luciferase signal – cell-based, NIH3T3, luminescence, dose retest, confirmation (AID 435004); format: functional;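 note: stress induced by proteasome inhibitor MG132 added 30 min after compound; luciferase reporter driven by HSF1 response element in NIH3T3 cells; actives raise luminescence as potentiators of the MG132 stress response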
T1 sequence (P38532 whole entry): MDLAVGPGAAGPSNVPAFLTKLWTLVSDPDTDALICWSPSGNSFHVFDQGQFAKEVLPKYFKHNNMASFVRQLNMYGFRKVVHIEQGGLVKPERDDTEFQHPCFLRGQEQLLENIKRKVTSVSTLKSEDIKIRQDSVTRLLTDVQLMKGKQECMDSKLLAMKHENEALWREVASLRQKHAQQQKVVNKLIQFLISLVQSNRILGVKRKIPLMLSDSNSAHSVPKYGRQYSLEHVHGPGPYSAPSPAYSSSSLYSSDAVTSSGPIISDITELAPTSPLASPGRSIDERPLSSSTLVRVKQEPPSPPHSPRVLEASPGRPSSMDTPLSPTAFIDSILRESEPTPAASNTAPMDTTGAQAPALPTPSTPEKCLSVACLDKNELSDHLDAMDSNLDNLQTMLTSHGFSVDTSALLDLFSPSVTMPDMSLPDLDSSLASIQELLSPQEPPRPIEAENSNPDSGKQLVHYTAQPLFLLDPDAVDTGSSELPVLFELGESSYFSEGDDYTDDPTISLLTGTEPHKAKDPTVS

[2] = Luminescent dose response cell-based high throughput screening assay for inhibitors of the Janus kinase 2 mutant JAK2V617F. [Related pubchem assays: 1446 (Primary screen.), 1521 (Confirmation assay.), 1486 (Counter screen.)]; format: functional
[3] = mitochondrial function rescue without frataxin homolog – Friedreich's ataxia, plus single-dose screen, dose response (AID 1465); format: functional;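 note: yeast depleted of Yfh1p frataxin homolog grown on glycerol needing respiration; WST-1 tetrazolium dye reduction as measure of cellular dehydrogenase metabolic activity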
[4] = viability of uninfected HEp-2 cells – cell-based, HTS, cytotoxicity control for RSV inhibitor project, dose response (AID 2410); format: functional; settings: human respiratory syncytial virus
[5] = molecular target: Induced myeloid leukemia cell differentiation protein Mcl-1 (Homo sapiens, UniProt Q07820); format: functional
Estrogen receptor beta [6] = molecular target: T2, Estrogen receptor beta (Homo sapiens, UniProt Q92731); assay: blockers of SRC-3 recruitment to ERβ – biochemical, ELISA, streptavidin-HRP readout, orthogonal assay, confirmation (AID 1060)
[7] = molecular target: Luciferin 4-monooxygenase (Photinus pyralis, UniProt P08659); assay: inhibition of purified Photinus pyralis luciferase – biochemical, luminescence, dose response (AID 1891)
[8] = Luminescence Cell-Based Dose Confirmation HTS to Identify Inhibitors of Platelet Dense Granule Release. [Related pubchem assays: 1663 (Primary HTS), 1678 (Summary of Project)]; format: functional
[9] = Fluorescence Cell-Based Dose Response to Identify Inhibitors of Thrombin Receptor-Activating Peptide SFLLRN-Mediated P-Selectin Induction on Platelets. [Related pubchem assays: 1663 (Primary HTS), 1889 (retest at dose ), 1891 (counterscreen), 1678 (Project Summary)]; format: functional
[10] = molecular target: 5-hydroxytryptamine receptor 1A (Homo sapiens, UniProt P08908); format: functional
[11] = molecular target: T3, Zinc finger protein mex-5 (Caenorhabditis elegans, UniProt Q9XUB2); assay: potency of MEX-5 RNA-binding blockers – biochemical, C. elegans, fluorescence polarization, dose response (AID 1960)
T3 sequence (Q9XUB2 whole entry): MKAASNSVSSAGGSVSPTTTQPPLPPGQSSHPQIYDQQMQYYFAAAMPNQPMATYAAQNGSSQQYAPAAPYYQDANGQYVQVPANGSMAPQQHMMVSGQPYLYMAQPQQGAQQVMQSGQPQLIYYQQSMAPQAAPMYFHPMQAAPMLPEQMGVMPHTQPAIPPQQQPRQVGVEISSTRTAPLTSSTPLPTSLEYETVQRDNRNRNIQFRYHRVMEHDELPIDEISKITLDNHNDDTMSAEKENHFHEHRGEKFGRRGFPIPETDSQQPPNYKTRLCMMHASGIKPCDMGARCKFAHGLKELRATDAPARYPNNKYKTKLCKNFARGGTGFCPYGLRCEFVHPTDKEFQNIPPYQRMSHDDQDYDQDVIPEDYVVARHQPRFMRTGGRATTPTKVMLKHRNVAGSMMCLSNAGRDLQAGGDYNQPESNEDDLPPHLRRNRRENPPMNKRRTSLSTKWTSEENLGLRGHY

Estrogen receptor beta [12] = molecular target: T2, Estrogen receptor beta
[13] = molecular target: T4, RNA-binding protein pos-1 (Caenorhabditis elegans, UniProt G5EF15); assay: disruptors of C. elegans POS-1 RNA interaction – biochemical, fluorescence polarization, dose response (AID 1964);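 note: purified POS-1 fused to maltose binding protein made in E. coli; potency of compounds blocking POS-1 binding to fluorescent RNA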
T4 sequence (G5EF15 whole entry): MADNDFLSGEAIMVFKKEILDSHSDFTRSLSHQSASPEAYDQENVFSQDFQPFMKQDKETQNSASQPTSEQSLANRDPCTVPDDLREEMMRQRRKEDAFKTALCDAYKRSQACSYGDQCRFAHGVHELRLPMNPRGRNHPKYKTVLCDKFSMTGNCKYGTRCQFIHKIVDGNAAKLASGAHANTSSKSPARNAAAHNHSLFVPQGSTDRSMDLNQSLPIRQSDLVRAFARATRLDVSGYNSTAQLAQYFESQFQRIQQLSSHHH

[14] = growth inhibition of PfATP4-mutant resistant parasites – NITD609-resistant line, SYBR Green, dry powder, dose response (AID 1159571); format: functional, cell-based;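 note: parasites synchronized at ring stage by sorbitol before testing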
[15] = toxicity to human HepG2 hepatoma cells – cell-based, plate reader, dry powder samples, cytotoxicity control, dose response (AID 1159569); format: functional;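 note: inhibitor potency with signal falling toward the positive control level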
[16] = Plasmodium falciparum Dd2 Sybr green parasite growth Measured in Cell-Based and Microorganism Combination System Using Plate Reader - 2153-01_Inhibitor_Dose_DryPowder_Activity_Set3.; format: functional
[17] = P. falciparum Dd2 growth inhibitors, dose response, SYBR Green, cherry-picked samples (AID 1159567); format: functional, cell-based
[18] = growth inhibition of yeast DHODH-expressing 3D7 parasites – SYBR Green, dry powder samples, dose response (AID 1159570); format: functional, cell-based;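 note: parasite growth measured after 72 hours of compound exposure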
[19] = Dd2 malaria parasite growth inhibition potency – SYBR Green, dry powder samples, dose response (AID 1159566); format: functional, cell-based;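 note: potency for growth inhibition with lower SYBR green DNA signal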
[20] = molecular target: G-protein coupled receptor 183 (Homo sapiens, UniProt P32249); assay: SAR confirmation of small molecule antagonists of the EBI2 receptor via a luminescent beta-arrestin assa.; format: functional
Estrogen receptor = molecular target: T5, Estrogen receptor (Homo sapiens, UniProt P03372); assay: ERα coactivator recruitment enhancers – biochemical, TR-FRET, ERα LBD, dose response (AID 737)
T5 sequence (P03372 whole entry): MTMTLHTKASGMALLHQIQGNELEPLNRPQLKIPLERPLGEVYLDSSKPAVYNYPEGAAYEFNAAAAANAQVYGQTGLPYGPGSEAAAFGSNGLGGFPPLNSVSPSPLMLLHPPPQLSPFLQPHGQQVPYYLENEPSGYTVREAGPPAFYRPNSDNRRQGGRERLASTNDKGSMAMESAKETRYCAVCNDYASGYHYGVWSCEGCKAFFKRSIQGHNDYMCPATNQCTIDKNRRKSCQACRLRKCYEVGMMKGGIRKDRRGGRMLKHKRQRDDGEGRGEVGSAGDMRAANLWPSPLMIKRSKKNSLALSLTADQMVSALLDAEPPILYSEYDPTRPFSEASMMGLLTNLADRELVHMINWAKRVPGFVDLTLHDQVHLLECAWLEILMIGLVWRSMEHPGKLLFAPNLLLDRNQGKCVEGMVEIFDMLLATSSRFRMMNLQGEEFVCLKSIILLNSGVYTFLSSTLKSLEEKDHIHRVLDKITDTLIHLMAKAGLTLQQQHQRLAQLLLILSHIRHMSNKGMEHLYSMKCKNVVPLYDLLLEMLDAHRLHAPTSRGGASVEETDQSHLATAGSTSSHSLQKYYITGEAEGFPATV

T2 sequence (Q92731 whole entry): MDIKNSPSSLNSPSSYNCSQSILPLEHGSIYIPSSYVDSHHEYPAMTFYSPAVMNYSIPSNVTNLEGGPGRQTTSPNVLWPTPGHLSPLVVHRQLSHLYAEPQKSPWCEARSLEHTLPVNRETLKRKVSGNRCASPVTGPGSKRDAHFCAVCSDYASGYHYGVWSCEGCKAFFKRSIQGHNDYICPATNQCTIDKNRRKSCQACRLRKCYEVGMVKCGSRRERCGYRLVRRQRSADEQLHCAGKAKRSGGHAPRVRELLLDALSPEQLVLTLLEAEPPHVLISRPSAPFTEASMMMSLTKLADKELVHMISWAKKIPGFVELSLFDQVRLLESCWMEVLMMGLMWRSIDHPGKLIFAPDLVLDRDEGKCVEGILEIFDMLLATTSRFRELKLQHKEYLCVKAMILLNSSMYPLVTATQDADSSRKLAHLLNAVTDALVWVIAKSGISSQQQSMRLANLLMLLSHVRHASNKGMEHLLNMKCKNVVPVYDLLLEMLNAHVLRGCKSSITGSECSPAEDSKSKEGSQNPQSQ
G-protein coupled receptor 183, sequence (P32249 whole entry, the tested form may be a part): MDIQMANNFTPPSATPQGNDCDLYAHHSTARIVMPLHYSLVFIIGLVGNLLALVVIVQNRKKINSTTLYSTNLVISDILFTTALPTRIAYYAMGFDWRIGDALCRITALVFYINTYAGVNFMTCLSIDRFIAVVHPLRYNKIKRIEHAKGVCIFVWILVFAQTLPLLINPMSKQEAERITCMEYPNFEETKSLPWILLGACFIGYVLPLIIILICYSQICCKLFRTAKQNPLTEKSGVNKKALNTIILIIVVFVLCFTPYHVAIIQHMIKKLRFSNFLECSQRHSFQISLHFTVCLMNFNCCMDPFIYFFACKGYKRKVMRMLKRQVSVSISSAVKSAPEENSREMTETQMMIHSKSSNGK
Induced myeloid leukemia cell differentiation protein Mcl-1, sequence (Q07820 whole entry): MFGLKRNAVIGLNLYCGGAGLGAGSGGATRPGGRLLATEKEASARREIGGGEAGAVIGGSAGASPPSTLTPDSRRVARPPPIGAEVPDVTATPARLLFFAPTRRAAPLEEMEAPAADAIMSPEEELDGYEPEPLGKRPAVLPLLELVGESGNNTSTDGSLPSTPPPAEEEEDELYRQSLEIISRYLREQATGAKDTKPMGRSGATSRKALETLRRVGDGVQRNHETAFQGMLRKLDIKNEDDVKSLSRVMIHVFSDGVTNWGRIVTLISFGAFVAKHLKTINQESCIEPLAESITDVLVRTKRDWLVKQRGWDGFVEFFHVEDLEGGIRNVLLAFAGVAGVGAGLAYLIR
5-hydroxytryptamine receptor 1A, sequence (P08908 whole entry): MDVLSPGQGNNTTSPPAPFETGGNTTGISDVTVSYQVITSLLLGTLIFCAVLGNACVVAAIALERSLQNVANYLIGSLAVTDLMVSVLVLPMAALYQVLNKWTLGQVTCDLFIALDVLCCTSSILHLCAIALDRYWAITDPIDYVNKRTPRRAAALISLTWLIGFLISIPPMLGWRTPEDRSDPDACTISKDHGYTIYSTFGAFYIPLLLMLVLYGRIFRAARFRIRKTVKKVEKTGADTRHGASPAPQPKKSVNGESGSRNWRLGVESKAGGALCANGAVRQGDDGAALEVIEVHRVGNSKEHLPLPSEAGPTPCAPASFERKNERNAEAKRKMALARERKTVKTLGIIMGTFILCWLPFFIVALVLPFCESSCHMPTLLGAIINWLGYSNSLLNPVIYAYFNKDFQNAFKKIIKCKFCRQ
Luciferin 4-monooxygenase, sequence (P08659 whole entry): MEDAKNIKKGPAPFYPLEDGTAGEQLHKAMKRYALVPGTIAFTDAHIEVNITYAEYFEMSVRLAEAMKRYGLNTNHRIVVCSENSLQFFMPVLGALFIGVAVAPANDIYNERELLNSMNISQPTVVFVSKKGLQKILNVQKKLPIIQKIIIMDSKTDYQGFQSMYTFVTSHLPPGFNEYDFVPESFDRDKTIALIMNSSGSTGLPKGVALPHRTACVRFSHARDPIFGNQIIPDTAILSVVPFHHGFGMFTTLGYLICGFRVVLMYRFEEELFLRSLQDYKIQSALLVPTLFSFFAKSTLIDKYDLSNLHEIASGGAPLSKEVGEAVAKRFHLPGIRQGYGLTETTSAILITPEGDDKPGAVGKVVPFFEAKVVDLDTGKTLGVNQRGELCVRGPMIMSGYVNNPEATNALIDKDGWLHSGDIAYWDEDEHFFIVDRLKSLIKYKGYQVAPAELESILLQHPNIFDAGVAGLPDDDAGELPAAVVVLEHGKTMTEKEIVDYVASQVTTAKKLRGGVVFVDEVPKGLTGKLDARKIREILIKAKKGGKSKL

Cc1cc(SCC(=O)N/N=C/c2ccc(O)c(O)c2)c(C)cc1Br
EC50 [1]: > 260 µM (inactive) | IC50 [2]: 1.65 µM (active)

CC(C(=O)O)N1C(=O)/C(=C/c2cccn2C)SC1=S (configuration not stated)
EC50 [3]: > 100 µM (active)

COC(=O)C1=C(C)N(Cc2ccccc2)C(=O)N[C@H]1c1ccccc1
CC50 [4]: 33.9 µM (active) | IC50 (cells): 5.02 µM (active)

CC(C)Cn1c(N)c(C(=O)COC(=O)c2cc(-c3ccco3)nc3ccccc23)c(=O)n(C)c1=O
IC50 [5]: 2.59 µM (active) | IC50 (Estrogen receptor beta [6]): > 50 µM (not active)

CCOc1cc(/C=N/NC(N)=O)cc(Br)c1OCC(=O)Nc1ccccc1C
EC50 [7]: > 112 µM (not active) | EC50 [8]: 1.55 µM (active) | EC50 [9]: < 1 µM (active)

NCCc1c[nH]c2ccc(F)cc12
EC50 [10]: 2.22 µM (active)

ON=C1/C(=N\O)CC2(C/C1=N/O)OCCO2
EC50 [11]: 13 µM (active) | IC50 (Estrogen receptor beta [12]): 14.1 µM (active) | EC50 [13]: > 300 µM (not active)

CCCC(=O)Nc1ccc2c(c1)OC[C@@H](C)N(Cc1ccc(F)cc1)C[C@@H](C)[C@H](OC)CN(C)C2=O
AC50 [14]: 2.44 µM (active) | AC50 [15]: 75.8 µM (active) | AC50 [16]: 2.51 µM (active) | AC50 [17]: 1.92 µM (active) | AC50 [18]: 9.67 µM (active) | AC50 [19]: 0.753 µM (active)

CC(C)c1ccc(S(=O)(=O)N2CCN(C(=O)/C=C/c3ccc(F)cc3)CC2)cc1
IC50 [20]: 0.0243 µM (active)

COc1ccc(-c2cn3c(C)c(C(=O)Nc4ccncc4)sc3n2)cc1
EC50 (Estrogen receptor): 18.9 µM (active)

From ChEMBL document CHEMBL1201862, “PubChem BioAssay data set” (2004)
